Measured values published in patent US20050112573A1, “Method of detecting toxic substance” (priority 2001, published 2005).

Tested on: yeast genes (level of expressed mRNA)
Test: DNA chip analysis of expressed mRNA of yeast genes after 2 h culture with a toxic chemical substance
Format: cell-based, Saccharomyces cerevisiae S288C
Method in brief: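 S. cerevisiae S288C in YPD at 25 °C was exposed at log phase for 2 h to a growth-inhibiting, non-lethal concentration of the chemical. Poly(A) mRNA was reverse-transcribed with Cy3- or Cy5-dUTP and hybridized to a whole-genome yeast DNA chip (65 °C, >12 h). Values are fluorescence ratios versus untreated cells.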

Na2As [(1)]
The level of expressed mRNA in the presence of chemical substance/ (yeast gene YNL074C, ratio to control without chemical substance, 2 h culture): 0.9
The level of expressed mRNA in the presence of chemical substance/ (yeast gene YNL092W, ratio to control without chemical substance, 2 h culture): 1.3
The level of expressed mRNA in the presence of chemical substance/The level of expressed mRNA in the absence of chemical substance (yeast gene YNL093W): 2.1
The level of expressed mRNA in the presence of chemical substance/ (yeast gene YNL115C, ratio to control without chemical substance, 2 h culture): 0.7
The level of expressed mRNA in the presence of chemical substance/ (yeast gene YNL156C, ratio to control without chemical substance, 2 h culture): 1.1
The level of expressed mRNA in the presence of chemical substance/ (yeast gene YNL234W, ratio to control without chemical substance, 2 h culture): 1.1
The level of expressed mRNA in the presence of chemical substance/ (yeast gene YNL281W, ratio to control without chemical): 1.0
The level of expressed mRNA in the presence of chemical substance/ (yeast gene YNL305C, ratio to control without chemical): 0.9
The level of expressed mRNA in the presence of chemical substance/The level of expressed mRNA in the absence of chemical substance (yeast gene YNL333W): 1.0
The level of expressed mRNA in the presence of chemical substance/The level of expressed mRNA in the absence of chemical substance (yeast gene YNR010W): 1.3
The level of expressed mRNA in the presence of chemical substance/ (yeast gene YNR068C, ratio to control without chemical): 1.2
The level of expressed mRNA in the presence of chemical substance/The level of expressed mRNA in the absence of chemical substance (yeast gene YNR069C): 1.5
The level of expressed mRNA in the presence of chemical substance/in the absence of chemical substance (yeast gene YNR072W): 1.1
The level of expressed mRNA in the presence of chemical substance/The level of expressed mRNA in the absence of chemical substance (yeast gene YOL013C): 0.9
The level of expressed mRNA in the presence of chemical substance/ (yeast gene YOL032W, ratio to control without chemical): 1.3
The level of expressed mRNA in the presence of chemical substance/ (yeast gene YOL036W, ratio to control without chemical): 0.8
The level of expressed mRNA in the presence of chemical substance/ (yeast gene YOL047C, ratio to control without chemical): 1.4
The level of expressed mRNA in the presence of chemical substance/ (yeast gene YOL071W, ratio to control without chemical): 1.3
The level of expressed mRNA in the presence of chemical substance/ (yeast gene YOL082W, ratio to control without chemical): 1.0
The level of expressed mRNA in the presence of chemical substance/ (yeast gene YOL083W, ratio to control without chemical): 1.1
The level of expressed mRNA in the presence of chemical substance/in the absence of chemical substance (yeast gene YOL096C): 1.1
The level of expressed mRNA in the presence of chemical substance/ (yeast gene YOL117W, ratio to control without chemical): 1.0
The level of expressed mRNA in the presence of chemical substance/ (yeast gene YOL131W, ratio to control without chemical): 1.0
The level of expressed mRNA in the presence of chemical substance/ (yeast gene YOL150C, ratio to control without chemical substance, 2 h culture): 4.1
The level of expressed mRNA in the presence of chemical substance/ (yeast gene YOL162W, ratio to control without chemical): 2.0
The level of expressed mRNA in the presence of chemical substance/The level of expressed mRNA in the absence of chemical substance (yeast gene YOL164W): 0.9
The level of expressed mRNA in the presence of chemical substance/ (yeast gene YOR019W, ratio to control without chemical): 2.9
The level of expressed mRNA in the presence of chemical substance/The level of expressed mRNA in the absence of chemical substance (yeast gene YOR036W): 1.8
The level of expressed mRNA in the presence of chemical substance/The level of expressed mRNA in the absence of chemical substance (yeast gene YOR117W): 0.8
The level of expressed mRNA in the presence of chemical substance/The level of expressed mRNA in the absence of chemical substance (yeast gene YOR124C): 0.6
The level of expressed mRNA in the presence of chemical substance/The level of expressed mRNA in the absence of chemical substance (yeast gene YOR132W): 0.9
The level of expressed mRNA in the presence of chemical substance/The level of expressed mRNA in the absence of chemical substance (yeast gene YOR157C): 1.0
The level of expressed mRNA in the presence of chemical substance/in the absence of chemical substance (yeast gene YOR180C): 0.8
The level of expressed mRNA in the presence of chemical substance/The level of expressed mRNA in the absence of chemical substance (yeast gene YOR181W): 1.0
The level of expressed mRNA in the presence of chemical substance/The level of expressed mRNA in the absence of chemical substance (yeast gene YOR185C): 1.1
The level of expressed mRNA in the presence of chemical substance/ (yeast gene YOR197W, ratio to control without chemical): 0.8
The level of expressed mRNA in the presence of chemical substance/The level of expressed mRNA in the absence of chemical substance (yeast gene YOR198C): 1.0
The level of expressed mRNA in the presence of chemical substance/The level of expressed mRNA in the absence of chemical substance (yeast gene YOR259C): 0.8
The level of expressed mRNA in the presence of chemical substance/The level of expressed mRNA in the absence of chemical substance (yeast gene YOR261C): 1.0
The level of expressed mRNA in the presence of chemical substance/The level of expressed mRNA in the absence of chemical substance (yeast gene YOR288C): 0.9
The level of expressed mRNA in the presence of chemical substance/The level of expressed mRNA in the absence of chemical substance (yeast gene YOR355W): 0.7
The level of expressed mRNA in the presence of chemical substance/in the absence of chemical substance (yeast gene YOR363C): 0.8
The level of expressed mRNA in the presence of chemical substance/The level of expressed mRNA in the absence of chemical substance (yeast gene YOR383C): 0.9
The level of expressed mRNA in the presence of chemical substance/ (yeast gene YPL087W, ratio to control without chemical): 1.0
The level of expressed mRNA in the presence of chemical substance/The level of expressed mRNA in the absence of chemical substance (yeast gene YPL089C): 1.2
The level of expressed mRNA in the presence of chemical substance/The level of expressed mRNA in the absence of chemical substance (yeast gene YPL109C): 1.1
The level of expressed mRNA in the presence of chemical substance/The level of expressed mRNA in the absence of chemical substance (yeast gene YPL149W): 1.5
The level of expressed mRNA in the presence of chemical substance/The level of expressed mRNA in the absence of chemical substance (yeast gene YPL154C): 0.7
The level of expressed mRNA in the presence of chemical substance/ (yeast gene YPL196W, ratio to control without chemical): 1.3
The level of expressed mRNA in the presence of chemical substance/ (yeast gene YPL206C, ratio to control without chemical): 1.0
The level of expressed mRNA in the presence of chemical substance/ (yeast gene YPL222W, ratio to control without chemical): 0.9
The level of expressed mRNA in the presence of chemical substance/ (yeast gene YPR023C, ratio to control without chemical): 1.2
The level of expressed mRNA in the presence of chemical substance/The level of expressed mRNA in the absence of chemical substance (yeast gene YPR103W): 0.7
The level of expressed mRNA in the presence of chemical substance/The level of expressed mRNA in the absence of chemical substance (yeast gene YPR108W): 0.8
The level of expressed mRNA in the presence of chemical substance/ (yeast gene YPR151C, ratio to control without chemical): 2.3
The level of expressed mRNA in the presence of chemical substance/in the absence of chemical substance (yeast gene YPR184W): 1.2
